# Experimental data from US8153651B2, “Amide derivatives as ion-channel ligands and pharmaceutical compositions and methods of using the same” (Evotec AG, priority 2007, dated 2012).
# Like-named read-outs stand apart in the source and are kept apart here.
# Target: T1, hVR1 (Homo sapiens, UniProt Q8NER1)
# T1 construct: expressed in transfected cells; host or cells: T-REx System cell line (Invitrogen Cat# R710-07), called 'human keratinocyte cell line' and 'HEK 293 cells'; vector pcDNA5/TO (Invitrogen Cat# V1033-20); expression induced with doxycycline
# T1 sequence (Q8NER1 whole entry): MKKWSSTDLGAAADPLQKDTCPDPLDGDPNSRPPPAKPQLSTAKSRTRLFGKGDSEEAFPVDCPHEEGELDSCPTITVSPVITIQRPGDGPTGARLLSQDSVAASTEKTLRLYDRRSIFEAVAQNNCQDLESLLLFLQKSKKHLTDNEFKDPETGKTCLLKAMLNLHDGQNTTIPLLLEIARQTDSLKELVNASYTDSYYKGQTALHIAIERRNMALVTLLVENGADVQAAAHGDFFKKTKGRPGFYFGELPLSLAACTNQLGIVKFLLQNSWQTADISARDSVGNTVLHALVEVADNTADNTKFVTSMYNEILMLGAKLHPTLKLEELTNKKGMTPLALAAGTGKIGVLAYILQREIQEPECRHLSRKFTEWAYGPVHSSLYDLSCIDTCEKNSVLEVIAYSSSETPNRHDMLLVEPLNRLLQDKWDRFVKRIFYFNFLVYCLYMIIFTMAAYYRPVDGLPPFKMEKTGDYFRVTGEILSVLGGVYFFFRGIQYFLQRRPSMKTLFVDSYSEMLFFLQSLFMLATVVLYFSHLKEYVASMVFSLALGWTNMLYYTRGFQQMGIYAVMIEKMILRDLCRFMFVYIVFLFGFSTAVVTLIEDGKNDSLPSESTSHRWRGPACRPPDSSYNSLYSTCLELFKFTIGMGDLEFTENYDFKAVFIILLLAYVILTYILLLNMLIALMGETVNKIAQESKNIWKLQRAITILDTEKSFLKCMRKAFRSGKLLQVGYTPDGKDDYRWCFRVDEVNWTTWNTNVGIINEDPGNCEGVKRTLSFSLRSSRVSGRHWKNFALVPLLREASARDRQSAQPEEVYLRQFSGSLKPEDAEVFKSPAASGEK
# Test: Calcium uptake assay (FLIPR), inhibition of agonist-induced calcium influx in cells expressing hVR1
# Type: cell-based
# Conditions: cells expressing human VR1, 2 or 30 min pre-incubation
# Method: The syntheses of these representative compounds were carried out in accordance with the methods set forth above, and activity of the compounds was measured by percent inhibition in a calcium uptake assay, the details of which are described below.
# Functional activity of compounds against the VR1 receptor was determined by measuring changes in intracellular calcium in HEK 293 cells expressing hVR1. Compounds were examined for their ability to inhibit agonist-induced calcium influx. Relative levels of [Ca^2+] were monitored in a 96-well format using a calcium-sensitive fluorescence dye and a FLIPR TETRA, Molecular Devices.
# Cells that express high levels of VR1 were obtained by generation of a cell line from human keratinocytes with heterologous expression of VR1 under control of an inducible promoter. Specifically, cells expressing human VR1 under the control of the human cytomegalovirus immediate-early (CMV) promoter and two tetracycline operator 2 (TetO2) sites were made using the T-REx System (Invitrogen, Carlsbad, Calif., USA). Details and methods concerning this system are published (Hum. Gene Ther. 9, pp. 1939-1950, 1998; Annu. Rev. Microbiol. 48, pp. 345-369, 1994; Mol. Biol. 169, pp. 707-721, 1983). Human VR1 was subcloned into the T-REx System pcDNA5/TO vector (Invitrogen Cat# V1033-20) which was transfected into the T-REx System human keratinocyte cell line (Invitrogen Cat# R710-07) from which a stable cell line was established which expresses VR1 after induction by exposure to tetracycline or doxycycline (Hum. Gene Ther. 9, pp. 1939-1950, 1998; instructions that come with purchase of products noted above). Cells were maintained in a CO2 incubator (5% CO2) at 37° C. in culture medium containing DMEM with phenol red (Mediatech Cat #: 15-017-CV) supplemented with 10% heat-inactivated Fetal Bovine Serum, 5% Penicillin-streptomycin (Mediatech Cat #: 30-002-CI), 5% Glutamax® (L-Alanyl-L-Glutamine, Mediateach Cat #: 25-015-CI), 200 μg/ml hygromycin (Mediatech #:30-240-CR), 0.5 μg/ml blasticidin (Invitrogen #46-1120)).
# For assay preparation, cells expressing human VR1 as described above were plated in 96-well plates (Becton Dickinson [BD] poly-D-lysine coated 96-well plates, cat#356692) at 55,000 cells per well in culture media (described above) that also contained 1 ug/ml doxycycline. Plated cells were then placed in an incubator (5% CO2) and incubated for 20-26 hours at 37° C., until the cells had grown to near confluency. Media was then aspirated from cells and 50 uL of dye-containing buffer (from Molecular Devices FLIPR Calcuim 4 Assay kit, cat# R8141) was added to each well. Cells were then left in the dark at room temperature for 1.5-2 hours. Cell plates were then placed in the FLIPR TETRA (Molecular Devices, CA, USA). Test compounds and agonists were added to wells using the liquid handling capability of the FLIPR TETRA. Calcuim responses of the cells were monitored by fluorescence readout of dye signal. Test compounds in saline (130 mM NaCl, 17 g/L sucrose, 1.8 g/L glucose, 8.8 mM HEPES, 3 mM KCl, 0.60 mM MgCl, 1.0 mM CaCl2; adjust to pH 7.4 using NaOH; 0.03% BSA added on the day of the experiment), or vehicle control in saline, were pre-incubated at the desired final concentrations in the dark at room temperature for 2 or 30 minutes with cells already containing the above mentioned dye buffer (dye solution was diluted 1:1 in culture wells with saline containing 2× the final concentration of test compound). […] Another agonist was protons via a low pH solution (saline solution described above plus 10 mM citric acid buffered to pH 5.7 with HCl instead of buffering to a neutral pH with NaOH as done for normal saline). Compounds were tested at various concentration ranges, depending upon potency of compound.
# [1] = IC50 (nM) Capsaicin, agonist capsaicin at 10 nM or its EC50
# [2] = agonist protons, low pH solution pH 5.7, read-out: IC50 (nM) Low pH
# [3] = read-out: IC50 (nM) Capsaicin, agonist capsaicin at 10 nM or its EC50
Molecule,IC50 [1],IC50 [2],IC50 [3]
"Cc1cc([C@@H](C)NC(=O)C2COc3nc(C(F)(F)F)ccc3O2)c(F)cc1NS(C)(=O)=O (stereo partly drawn) [Example 21, 6-trifluoromethyl-2,3-dihydro[1,4]dioxino[2,3-b]pyridine-2-carboxylic acid [(R)-1-(2-fluoro-4-methanesulfonylamino-5-methylphenyl)ethyl]amide]",101 to 500 nM,–,–
"Cc1cc([C@@H](C)NC(=O)[C@@H]2COc3ccc(C(F)(F)F)cc3O2)c(F)cc1NS(C)(=O)=O [Example 19, (S)—N—((R)-1-(2-fluoro-5-methyl-4-(methylsulfonamido)phenyl)ethyl)-7-(trifluoromethyl)-2,3-dihydrobenzo[b][1,4]dioxine-2-carboxamide]",101 to 500 nM,–,–
"COC(C)(C)c1ccc2c(n1)CC[C@@H](C(=O)N[C@H](C)c1cc(C)c(NS(C)(=O)=O)cc1F)C2 (single isomer, unassigned) [Example 14]",101 to 500 nM,101 to 500 nM,–
"Cc1cc([C@@H](C)NC(=O)[C@H]2CCc3nc(C4(C)OCCO4)ccc3C2)c(F)cc1NS(C)(=O)=O [Example 20, (S)—N—((R)-1-(2-fluoro-5-methyl-4-(methylsulfonamido)phenyl)ethyl)-2-(2-methyl-1,3-dioxolan-2-yl)-5,6,7,8-tetrahydroquinoline-6-carboxamide]",101 to 500 nM,–,–
"Cc1cc([C@@H](C)NC(=O)[C@@H]2CCc3nc(C(C)(C)C(F)(F)F)ccc3C2)c(F)cc1NS(C)(=O)=O [Example 9, (R)—N—((R)-1-(2-Fluoro-5-methyl-4-(methylsulfonamido)phenyl)ethyl)-2-(1,1,1-trifluoro-2-methylpropan-2-yl)-5,6,7,8-tetrahydroquinoline-6-carboxamide]",–,< 100 nM,–
"(R)—N—((R)-1-(2-fluoro-5-methyl-4-(methylsulfonamido)phenyl)ethyl)-6-(trifluoromethyl)-2,3-dihydrobenzo[b][1,4]dioxine-2-carboxamide [Example 18]",–,–,< 100 nM
"Cc1cc([C@@H](C)NC(=O)[C@H]2CCc3nc(C(C)(C)C(F)(F)F)ccc3C2)c(F)cc1NS(C)(=O)=O [Example 10, (S)—N—((R)-1-(2-Fluoro-5-methyl-4-(methylsulfonamido)phenyl)ethyl)-2-(1,1,1-trifluoro-2-methylpropan-2-yl)-5,6,7,8-tetrahydroquinoline-6-carboxamide]",–,–,< 100 nM
"Cc1cc([C@@H](C)NC(=O)[C@@H]2COc3cc(C(F)(F)F)ccc3O2)c(F)cc1NS(C)(=O)=O [Example 16, (S)—N—((R)-1-(2-fluoro-5-methyl-4-(methylsulfonamido)phenyl)ethyl)-6-(trifluoromethyl)-2,3-dihydrobenzo[b][1,4]dioxine-2-carboxamide]",101 to 500 nM,–,–
"Cc1cc([C@@H](C)NC(=O)C2CCc3nc(C(C)(C)O)ccc3C2)c(F)cc1NS(C)(=O)=O (stereo partly drawn) [Example 13, N—((R)-1-(2-fluoro-5-methyl-4-(methylsulfonamido)phenyl)ethyl)-2-(2-hydroxypropan-2-yl)-5,6,7,8-tetrahydroquinoline-6-carboxamide]",101 to 500 nM,–,–
"COc1ccc2c(c1)CCC(C(=O)NC(C)c1cc(C)c(NS(C)(=O)=O)cc1F)C2 (centres unmarked) [Example 11, 6-Methoxy-1,2,3,4-tetrahydro-naphthalene-2-carboxylic acid [1-(2-fluoro-4-methanesulfonylamino-5-methyl-phenyl)-ethyl]-amide]",101 to 500 nM,–,–

# Continued, values first:
IC50 [1],IC50 [2],IC50 [3],Molecule
101 to 500 nM,> 1000 nM,–,Cc1cc([C@@H](C)NC(=O)C2CCc3ccccc3O2)c(F)cc1NS(C)(=O)=O (some centres unmarked) [Example 2]
101 to 500 nM,> 1000 nM,–,COc1ccc2c(c1)CCC(C(=O)N[C@H](C)c1cc(C)c(NS(C)(=O)=O)cc1F)C2C (some centres unmarked) [Example 5]
< 100 nM,101 to 500 nM,–,"Cc1cc([C@@H](C)NC(=O)C2CCc3ccccc3C2)c(F)cc1NS(C)(=O)=O (some centres unmarked) [Example 3, 1,2,3,4-Tetrahydronaphthalene-2-carboxylic acid f(r)-1-(2-fluoro-4-methanesulfonylamino-5-methylphenyl)ethylamide]"
< 100 nM,< 100 nM,–,Cc1cc([C@@H](C)NC(=O)C2CN(C)c3cc(C(F)(F)F)ccc3O2)c(F)cc1NS(C)(=O)=O (some centres unmarked) [Example 7]
< 100 nM,–,–,"Cc1cc([C@@H](C)NC(=O)C2CCc3nc(C(F)(F)F)ccc3C2)c(F)cc1NS(C)(=O)=O (stereo partly drawn) [Example 12, N—((R)-1-(2-Fluoro-5-methyl-4-(methylsulfonamido)phenyl)ethyl)-2-(trifluoromethyl)-5,6,7,8-tetrahydroquinoline-6-carboxamide]"
< 100 nM,< 100 nM,–,Cc1cc([C@@H](C)NC(=O)C2COc3ccc(Cl)cc3C2)c(F)cc1NS(C)(=O)=O (some centres unmarked) [Example 6]
< 100 nM,–,–,"Cc1cc([C@@H](C)NC(=O)C2CCc3nc(C(C)(C)C(F)(F)F)ccc3C2)c(F)cc1NS(C)(=O)=O (stereo partly drawn) [Example 8, N—((R)-1-(2-Fluoro-5-methyl-4-(methylsulfonamido)phenyl)ethyl)-2-(1,1,1-trifluoro-2-methylpropan-2-yl)-5,6,7,8-tetrahydroquinoline-6-carboxamide]"
< 100 nM,–,–,"Cc1cc([C@@H](C)NC(=O)[C@H]2COc3ccc(C(F)(F)F)cc3O2)c(F)cc1NS(C)(=O)=O [Example 17, (R)—N—((R)-1-(2-fluoro-5-methyl-4-(methylsulfonamido)phenyl)ethyl)-7-(trifluoromethyl)-2,3-dihydrobenzo[b][1,4]dioxine-2-carboxamide]"
< 100 nM,101 to 500 nM,–,"Cc1cc([C@@H](C)NC(=O)C2=Cc3ccccc3OC2)c(F)cc1NS(C)(=O)=O [Example 1, (R)—N-(1-(2-Fluoro-5-methyl-4-(methylsulfonamido)phenyl)ethyl)-2h-chromene-3-carboxamide]"
< 100 nM,< 100 nM,–,"COC(C)(C)c1ccc2c(n1)CC[C@H](C(=O)N[C@H](C)c1cc(C)c(NS(C)(=O)=O)cc1F)C2 (single isomer, unassigned) [Example 15]"
< 100 nM,–,–,C[C@@H](NC(=O)[C@H]1COc2cc(C(F)(F)F)ccc2O1)c1ccc(NS(C)(=O)=O)c(Cl)c1 [Example 23]
< 100 nM,–,–,"C[C@@H](NC(=O)[C@H]1COc2cc(C(F)(F)F)ccc2O1)c1ccc(NS(C)(=O)=O)c(F)c1 [Example 22, (R)-6-Trifluoromethyl-2,3-dihydrobenzo[1,4]dioxine-2-carboxylic acid [(R)-1-(3-fluoro-4-methanesulfonylaminophenyl)ethyl]amide]"
< 100 nM,< 100 nM,–,Cc1cc([C@@H](C)NC(=O)C2=Cc3cc(Cl)ccc3OC2)c(F)cc1NS(C)(=O)=O [Example 4]
